How the values were obtained:
Format in all cases: functional
[1] = test system: Pyricularia grisea; assay: Fungicidal activity against Magnaporthe grisea in rice plant assessed as rice blast disease measured as damage under greenhouse by foliar spray for 8 days compound treated before inoculation; conditions: 192 h
[2] = test system: Pyricularia grisea; assay: Fungicidal activity against Magnaporthe grisea in rice plant assessed as rice blast disease measured as damage under greenhouse at 25 ppm for 8 days by foliar spray compound treated before inoculation
[3] = test system: Pyricularia grisea; assay: Fungicidal activity against Magnaporthe grisea in rice plant assessed as rice blast disease measured as damage under greenhouse at 6.3 ppm for 8 days by foliar spray compound treated before inoculation
[4] = test system: Pyricularia grisea; assay: Fungicidal activity against Magnaporthe grisea in rice plant assessed as rice blast disease measured as damage under greenhouse at 1.6 ppm for 8 days by foliar spray compound treated before inoculation
[5] = test system: Pyricularia grisea; assay: Fungicidal activity against Magnaporthe grisea in rice plant assessed as rice blast disease measured as damage under greenhouse at 0.4 ppm for 8 days by foliar spray compound treated before inoculation
[6] = test system: Pyricularia grisea; assay: Fungicidal activity against Magnaporthe grisea in rice plant assessed as prevention from rice blast disease measured as lesions under greenhouse at > 200 ppm for 8 days by foliar spray compound treated before inoculation
[7] = test system: Pyricularia grisea; assay: Fungicidal activity against Magnaporthe grisea in rice plant assessed as prevention from rice blast disease measured as lesions under greenhouse at > 200 ppm for 8 days by soil drench compound treated before inoculation
[8] = test system: Pyricularia grisea; assay: Fungicidal activity against Magnaporthe grisea in rice plant assessed as prevention from rice blast disease measured as lesions under greenhouse at 200 ppm for 8 days by foliar spray compound treated before inoculation
[9] = test system: Pyricularia grisea; assay: Fungicidal activity against Magnaporthe grisea in rice plant assessed as prevention from rice blast disease measured as lesions under greenhouse at 200 ppm for 8 days by soil drench compound treated before inoculation
[10] = test system: Pyricularia grisea; assay: Fungicidal activity against Magnaporthe grisea in rice plant assessed as prevention from rice blast disease measured as lesions under greenhouse at 50 ppm for 8 days by foliar spray compound treated before inoculation
[11] = test system: Pyricularia grisea; assay: Fungicidal activity against Magnaporthe grisea in rice plant assessed as prevention from rice blast disease measured as lesions under greenhouse at 3.1 ppm for 8 days by foliar spray compound treated before inoculation
[12] = test system: Pyricularia grisea; assay: Fungicidal activity against Magnaporthe grisea in rice plant assessed as prevention from rice blast disease measured as lesions under greenhouse at 12.5 ppm for 8 days by soil drench compound treated before inoculation
[13] = test system: Pyricularia grisea; assay: Fungicidal activity against Magnaporthe grisea in rice plant assessed as prevention from rice blast disease measured as lesions under greenhouse at 50 ppm for 8 days by soil drench compound treated before inoculation
[14] = test system: Pyricularia grisea; assay: Fungicidal activity against Magnaporthe grisea in rice plant assessed as prevention from rice blast disease measured as lesions under greenhouse at 12.5 ppm for 8 days by foliar spray compound treated before inoculation

SMILES: C[C@@H](NC(=O)C(C#N)C(C)(C)C)c1ccc(Cl)cc1Cl (mixture of isomers) [DICLOCYMET]
- MIC [1]: 0.08 µg/mL
- Activity [2]: 4%
- Activity [3]: 4%
- Activity [4]: 3%
- Activity [5]: 2%

SMILES: CC(NC(=O)C(C#N)c1ccccc1)c1ccc(Cl)cc1 (stereo not given)
- Activity [6]: <=10%
- Activity [7]: <=10%

SMILES: CC(NC(=O)C(C)(C#N)C(C)(C)C)c1ccc(Cl)cc1 (stereo not given)
- Activity [8]: <=10%
- Activity [7]: <=10%

SMILES: CC(NC(=O)C(C#N)C(C)(C)C)c1ccc(OC(F)(F)C(F)F)cc1 (stereo not given)
- Activity [8]: <=10%
- Activity [9]: <=10%

SMILES: CC(C)C(C)NC(=O)C(C#N)C(C)(C)C (stereo not given)
- Activity [6]: <=10%
- Activity [7]: <=10%

SMILES: COC(NC(=O)C(C#N)C(C)(C)C)c1ccc(Cl)cc1 (stereo not given)
- Activity [6]: <=10%
- Activity [7]: <=10%

SMILES: CC(NC(=O)C(C#N)=C1CCCC1)c1ccc(Cl)cc1 (stereo not given)
- Activity [8]: <=10%
- Activity [9]: <=10%

SMILES: COC(C(=O)NC(C)c1ccc(Cl)cc1)C(C)(C)C (stereo not given)
- Activity [6]: <=10%
- Activity [8]: <=10%
- Activity [7]: <=10%

SMILES: C[C@H](NC(=O)[C@@H](C#N)C(C)(C)C)c1ccc(Cl)cc1Cl
- MIC [1]: > 20 µg/mL
- Activity [2]: 0%
- Activity [3]: 0%
- Activity [4]: 0%
- Activity [5]: 0%

SMILES: CC(NC(=O)C(C#N)C(C)(C)C)c1ccccc1Cl (stereo not given)
- Activity [9]: <=10%

SMILES: CC(C)(C)C(C#N)C(=O)NCc1ccc(Cl)cc1 (stereo not given)
- Activity [8]: <=10%
- Activity [9]: <=10%

SMILES: CCCCC(C#N)C(=O)NC(C)c1ccc(Cl)cc1 (stereo not given)
- Activity [10]: <=10%
- Activity [9]: <=10%

SMILES: C=CC(C)(C)C(C#N)C(=O)NC(C)c1ccc(Cl)cc1F (stereo not given)
- Activity [11]: <=10%
- Activity [12]: <=10%

SMILES: CC(NC(=O)C1(C#N)CCCCC1)c1ccc(Cl)cc1 (stereo not given)
- Activity [6]: <=10%
- Activity [7]: <=10%

SMILES: CC(NC(=O)C(C#N)C1CCCC1)c1ccc(Cl)cc1 (stereo not given)
- Activity [10]: <=10%
- Activity [9]: <=10%

SMILES: CC(NC(=O)C(C#N)C(C)(C)C)c1ccc(F)cc1 (stereo not given)
- Activity [8]: <=10%
- Activity [7]: <=10%

SMILES: CC(C#N)C(=O)NC(C)c1ccc(Cl)cc1 (stereo not given)
- Activity [6]: <=10%
- Activity [7]: <=10%

SMILES: CC(C)CC(C#N)C(=O)NC(C)c1ccc(Cl)cc1 (stereo not given)
- Activity [8]: <=10%
- Activity [9]: <=10%

SMILES: CC(NC(=O)C(F)C(C)(C)C)c1ccc(Cl)cc1 (stereo not given)
- Activity [6]: <=10%
- Activity [7]: <=10%

SMILES: CC(C)(C)C(C#N)C(=O)Nc1ccc(Cl)cc1 (stereo not given)
- Activity [6]: <=10%
- Activity [7]: <=10%

SMILES: Cc1ccc(C(C)NC(=O)C(C#N)C(C)(C)C)cc1 (stereo not given)
- Activity [11]: <=10%
- Activity [13]: <=10%

SMILES: CC(NC(=O)C(Br)C(C)(C)C)c1ccc(Cl)cc1 (stereo not given)
- Activity [9]: <=10%

SMILES: C#CC(C(=O)NC(C)c1ccc(Cl)cc1)C(C)(C)C (stereo not given)
- Activity [8]: <=10%
- Activity [7]: <=10%

SMILES: C=CC(C)(C)C(C#N)C(=O)NC(C)c1ccc(Cl)cc1C (stereo not given)
- Activity [7]: <=10%

SMILES: CC(C)=C(C#N)C(=O)NC(C)c1ccc(Cl)cc1 (stereo not given)
- Activity [6]: <=10%
- Activity [7]: <=10%

SMILES: C#CC(C)(C)C(C#N)C(=O)NC(C)c1ccc(Cl)cc1 (stereo not given)
- Activity [11]: <=10%
- Activity [12]: <=10%

SMILES: CC(Cc1ccc(Cl)cc1)NC(=O)C(C#N)C(C)(C)C (stereo not given)
- Activity [8]: <=10%
- Activity [7]: <=10%

SMILES: CSC(C(=O)NC(C)c1ccc(Cl)cc1)C(C)(C)C (stereo not given)
- Activity [8]: <=10%
- Activity [7]: <=10%

SMILES: C=CC(C)(C)C(C#N)C(=O)NC(C)c1ccc(Cl)cc1OC (stereo not given)
- Activity [11]: <=10%
- Activity [13]: <=10%

SMILES: CC(NC(=O)C(C#N)C(C)(C)C)c1ccc(Cl)s1 (stereo not given)
- Activity [8]: <=10%
- Activity [7]: <=10%

SMILES: CCC(NC(=O)C(C#N)C(C)(C)C)c1ccc(Cl)cc1 (stereo not given)
- Activity [6]: <=10%
- Activity [7]: <=10%

SMILES: C[C@H](NC(=O)[C@H](C#N)C(C)(C)C)c1ccc(Cl)cc1Cl
- MIC [1]: > 20 µg/mL
- Activity [2]: 0%
- Activity [3]: 0%
- Activity [4]: 0%
- Activity [5]: 0%

SMILES: C=CC(C)(C)C(C#N)C(=O)NC(C)c1ccc(Cl)cc1Cl (stereo not given)
- Activity [14]: <=10%
- Activity [13]: <=10%

SMILES: COc1ccc(C(C)NC(=O)C(C#N)C(C)(C)C)cc1 (stereo not given)
- Activity [8]: <=10%
- Activity [9]: <=10%
